The values below come from ChEMBL document CHEMBL1128268, “Tryptophan-derived NK1 antagonists: conformationally constrained heterocyclic bioisosteres of the ester linkage” (J Med Chem, 1995).

This assay deals with Substance-P receptor (Homo sapiens, UniProt P25103). The assay is described as follows: Binding affinity at human Tachykinin receptor 1 expressed in CHO cells by [125 I]Trp8-substance P displacement. It is filed as cell-based.
Chain of Substance-P receptor (P25103 whole entry): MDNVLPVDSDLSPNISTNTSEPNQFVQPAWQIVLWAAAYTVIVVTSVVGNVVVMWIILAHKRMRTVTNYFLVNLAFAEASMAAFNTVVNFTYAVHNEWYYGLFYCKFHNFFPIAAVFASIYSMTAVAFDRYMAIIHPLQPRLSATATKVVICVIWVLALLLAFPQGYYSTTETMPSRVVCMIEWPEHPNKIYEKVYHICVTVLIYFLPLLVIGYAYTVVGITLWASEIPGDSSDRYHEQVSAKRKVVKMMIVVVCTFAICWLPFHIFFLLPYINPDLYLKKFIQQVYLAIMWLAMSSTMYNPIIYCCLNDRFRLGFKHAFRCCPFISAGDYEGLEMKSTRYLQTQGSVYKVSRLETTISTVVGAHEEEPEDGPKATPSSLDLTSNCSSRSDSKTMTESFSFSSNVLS
As a reminder, the IC50 is the concentration that gives 50% inhibition. Higher therefore signals weaker potency in that assay. Take `C=CCC1(Cc2c[nH]c3ccccc23)OC(=O)N(Cc2cc(C(F)(F)F)cc(C(F)(F)F)c2)C1=O` (centres undefined): the IC50 was 31 nM.
In the case of `O=C1CNC(Cc2c[nH]c3ccccc23)CN1Cc1cc(C(F)(F)F)cc(C(F)(F)F)c1` (centres undefined) it was 243 nM; in that of `CNC(=O)N1C(=O)N(Cc2cc(C(F)(F)F)cc(C(F)(F)F)c2)C(=O)C1Cc1c[nH]c2ccccc12` (centres undefined), 63 nM; in that of `O=C1C(Cc2c[nH]c3ccccc23)N(C(=O)Nc2ccccc2)C(=O)N1Cc1cc(C(F)(F)F)cc(C(F)(F)F)c1` (centres undefined), 220 nM.
For `O=C1OC(Cc2c[nH]c3ccccc23)C(=O)N1Cc1cc(C(F)(F)F)cc(C(F)(F)F)c1` (racemic) the value was 22 nM; for `CC1(Cc2c[nH]c3ccccc23)OC(=O)N(Cc2cc(C(F)(F)F)cc(C(F)(F)F)c2)C1=O` (centres undefined), 11 nM.
In the case of `CN1C(=O)N(Cc2cc(C(F)(F)F)cc(C(F)(F)F)c2)C(=O)C1Cc1c[nH]c2ccccc12` (centres undefined) it was 153 nM; in that of `O=C1OC(Cc2c[nH]c3ccccc23)C(=O)N1Cc1cc(F)cc(F)c1` (centres undefined), 4280 nM.
In turn, `O=C1OC(Cc2c[nH]c3ccccc23)C(=O)N1Cc1cccc(C(F)(F)F)c1` (centres undefined) came in with a half-maximal inhibitory concentration (IC50) of 2670 nM.
In the case of `O=C1NC(Cc2c[nH]c3ccccc23)C(=O)N1Cc1cc(C(F)(F)F)cc(C(F)(F)F)c1` (centres undefined) it was 317 nM; in that of `O=C1OC(Cc2c[nH]c3ccccc23)C(=O)N1Cc1cc(Cl)cc(Cl)c1` (centres undefined), 273 nM.
For `O=C1CC(Cc2c[nH]c3ccccc23)C(=O)N1Cc1cc(C(F)(F)F)cc(C(F)(F)F)c1` (centres undefined) the value was 203 nM.
For `FC(F)(F)c1cc(CN2CCNC(Cc3c[nH]c4ccccc34)C2)cc(C(F)(F)F)c1` (centres undefined) the value was 567 nM.
In turn, `O=C1C(Cc2c[nH]c3ccccc23)N(Cc2ccccc2)C(=O)N1Cc1cc(C(F)(F)F)cc(C(F)(F)F)c1` (centres undefined) showed a 50% inhibitory concentration (IC50) of 310 nM.
Turning to `O=C1NC(Cc2c[nH]c3ccccc23)CN(Cc2cc(C(F)(F)F)cc(C(F)(F)F)c2)C1=O` (centres undefined), the IC50 was found to be 400 nM.
On to `Cc1cc(C)cc(CN2C(=O)OC(Cc3c[nH]c4ccccc34)C2=O)c1` (centres undefined), for which the half-maximal inhibitory concentration (IC50) was determined as 683 nM.
For `O=C1OC(Cc2c[nH]c3ccccc23)C(=O)N1Cc1cc(C(F)(F)F)cc(C(F)(F)F)c1` (single isomer, unassigned; (-)) the value was 26 nM; for `O=C1NC(Cc2c[nH]c3ccccc23)CN1Cc1cc(C(F)(F)F)cc(C(F)(F)F)c1` (centres undefined), 267 nM.
Molecule `COc1cc(CN2C(=O)OC(Cc3c[nH]c4ccccc34)C2=O)cc(OC)c1` (centres undefined) yielded a half-maximal inhibitory concentration (IC50) of 7370 nM.
